EC50, Emax and Ki data for eight compounds are collected here from US20090062251A1, “Novel Compounds 002” (ASTRAZENECA AB, priority 2007, published 2009).

The structures appear in SMILES notation.

Assay [1] concerns the target T1, Human CB1 receptor (hCB1) (Homo sapiens, UniProt P21554).
T1 construct: purchased Receptor Biology
Nature of the assay: hCB1 GTPγS binding. It is filed as biochemical. The conditions noted are these: for EC50: hCB1 membranes, GTPγ35S, 10-point dose-response; for Emax: maximal stimulated binding determined with 10 μM Win 55,212-2. An outline of the steps: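 Human CB1 membranes in 50 mM Hepes, 100 mM NaCl, 1 mM EDTA, 5 mM MgCl2, 0.1% BSA, pH 7.4 were preincubated 5 min with GDP (30 μM final). Basal and maximal binding were defined without or with 10 μM Win 55,212-2; incubation 60 min RT; filter-bound radioactivity counted. Antagonist reversal used fixed antagonist with agonist curve, or fixed agonist with antagonist curve.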
(In general: Binding of GTPγS marks nucleotide exchange on a G protein.)

The target in assay [2] is T1, Human CB1 receptor (hCB1). Briefly: hCB1 receptor binding (3H-CP55,940 displacement). The conditions noted are these: hCB1 membranes, Ki=IC50/(1+[rad]/Kd). An outline of the steps: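 Human CB1 membranes in Tris buffer pH 7.4 with 2.5 mM EDTA, 5 mM MgCl2 and 0.5 mg/mL fatty-acid-free BSA, incubated 60 min at room temperature with [3H]CP55,940.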

T1 sequence (P21554 whole entry): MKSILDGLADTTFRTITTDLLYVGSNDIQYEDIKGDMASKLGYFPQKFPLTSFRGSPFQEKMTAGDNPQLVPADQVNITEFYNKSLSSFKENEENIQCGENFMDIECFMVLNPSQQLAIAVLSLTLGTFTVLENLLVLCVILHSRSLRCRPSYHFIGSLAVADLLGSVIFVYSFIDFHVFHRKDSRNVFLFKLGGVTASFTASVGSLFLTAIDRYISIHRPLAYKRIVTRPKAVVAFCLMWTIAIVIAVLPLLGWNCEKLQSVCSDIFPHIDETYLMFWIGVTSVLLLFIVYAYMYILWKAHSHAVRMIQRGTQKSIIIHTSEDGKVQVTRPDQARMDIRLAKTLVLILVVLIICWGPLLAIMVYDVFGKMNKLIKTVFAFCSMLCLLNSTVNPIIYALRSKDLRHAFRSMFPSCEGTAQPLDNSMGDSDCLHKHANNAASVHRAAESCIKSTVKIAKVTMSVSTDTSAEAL

One may read the EC50 as the concentration at which the effect is half-maximal. For orientation: Emax means the greatest response seen or fitted, relative to the assay's reference. The Ki is a measure of affinity in units of concentration, obtained from inhibition or displacement. Read a low Ki as a stronger hold on the target. In assay [1], `CCN(CC(=O)NCCCO)C(=O)c1ccc2c(c1)c1c(n2S(=O)(=O)CC)CCC(C2CCOCC2)C1` (stereo not drawn) [N-ethyl-9-ethylsulfonyl-N-(3-hydroxypropylcarbamoylmethyl)-6-(oxan-4-yl)-5,6,7,8-tetrahydrocarbazole-3-carboxamide] returned a 50% effective concentration (EC50) of 53.3 nM and an Emax of 126%. The compound further had a Ki in assay [2] of 45.8 nM.

As to `CCN(CC(=O)NCCF)C(=O)c1ccc2c(c1)c1c(n2C2CCC2)CCC(C2CCOCC2)C1` (stereo not drawn) [9-cyclobutyl-N-ethyl-N-(2-fluoroethylcarbamoylmethyl)-6-(oxan-4-yl)-5,6,7,8-tetrahydrocarbazole-3-carboxamide], in assay [1], the midpoint of the response, the EC50, lay at 279 nM and the Emax amounted to 80%. The compound further came in with a Ki in assay [2] of 131 nM.

For `CC(C)S(=O)(=O)n1c2c(c3cc(C(=O)N(C)CC(=O)NC4CC4)ccc31)CC(C1CCCCC1)CC2` (stereo not drawn) [6-cyclohexyl-N-(cyclopropylcarbamoylmethyl)-N-methyl-9-propan-2-ylsulfonyl-5,6,7,8-tetrahydrocarbazole-3-carboxamide], in assay [1], the EC50 was determined as 43.9 nM and the Emax amounted to 110%. In assay [2], the affinity, expressed as Ki, was 21.2 nM.

As to `CN(CCN(C)C(=S)NC1CC1)C(=O)c1ccc2c(c1)c1c(n2C)CCC(C2CCOCC2)C1` (stereo not drawn) [N-[2-(cyclopropylthiocarbamoyl-methyl-amino)ethyl]-N,9-dimethyl-6-(oxan-4-yl)-5,6,7,8-tetrahydrocarbazole-3-carboxamide], in assay [1], the concentration giving a half-maximal response (EC50) was 161 nM and the maximal response (Emax) was 106%. The affinity in assay [2], expressed as Ki, was 9.9 nM.

In assay [1], `Cn1c2c(c3cc(C(=O)N4CCCC(NC(=O)C5CC5)C4)ccc31)CC(C1CCOCC1)CC2` (stereo not drawn) [N-[1-[9-methyl-6-(oxan-4-yl)5,6,7,8-tetrahydrocarbazole-3-carbonyl]-3-piperidyl]cyclopropanecarboxamide] gave a concentration giving a half-maximal response (EC50) of 40.6 nM and an Emax of 115%. Further, in assay [2], the affinity, expressed as Ki, was 26.7 nM.

In assay [1], `CCn1c2c(c3cc(C(=O)N(C)CCCC(=O)NC)ccc31)CC(C1CCOCC1)CC2` (stereo not drawn) [9-ethyl-N-methyl-N-[3-(methylcarbamoyl)propyl]-6-(oxan-4-yl)-5,6,7,8-tetrahydrocarbazole-3-carboxamide] had an EC50 of 146 nM and an Emax of 121%. In assay [2], this compound showed a Ki of 59.2 nM.

As for `CCNC(=O)[C@@H](C)N(C)C(=O)c1ccc2c(c1)c1c(n2C)CCC(C2CCOCC2)C1` (stereo partly drawn) [N-[(1R)-1-(ethylcarbamoyl)ethyl]-N,9-dimethyl-6-(oxan-4-yl)-5,6,7,8-tetrahydrocarbazole-3-carboxamide], in assay [1], a half-maximal effect (EC50) was put at 237 nM and the maximal effect (Emax) was determined as 112%. For the same compound, the Ki in assay [2] was 77.1 nM.

Take `Cn1c2c(c3cc(C(=O)N4CCC(C(=O)NC5CC5)CC4)ccc31)CC(C1CCOCC1)CC2` (stereo not drawn) [N-cyclopropyl-1-[9-methyl-6-(oxan-4-yl)5,6,7,8-tetrahydrocarbazole-3-carbonyl]piperidine-4-carboxamide]: in assay [1], the response was half-maximal at 214 nM (EC50) and the maximal response (Emax) turned out to be 102%. Also, in assay [2], the inhibition constant (Ki) turned out to be 118 nM.
